≈ marks a conversion by molar mass, not a printed value. Read-outs that look alike come from different tables or passages of the source.
Tests used:
in vitro = type: cell-based, human; settings: human; MRC-5 (lung fibroblast); 24 h; one biological replicate (n = 3); read-out: CC50 for human cells
Experimental: (§1) as a range from biological replicates. Inhibition curves were generated using Prism (GraphPad).
(§2) The IC50 values reported in Table 2 are the average of the two biological replicates ± standard […]
(§3) Cytotoxicity Assay Procedure
(§4) Human lung fibroblast cells, MRC -5 (CCL-171), were cultured at 37℃ with 5% CO2 and were plated at 5000 cells/well in a 96 -well plate. Compounds 1, 2, and 15-22 were initially prepared at concentrations of 5.12 mg/mL in a vehicle of 50% DMSO. Dilutions of the compounds (4 – 512 μg/mL) were then prepared in growth medium containing Dulbecco’s modified Eagle’s medium (DMEM) with high glucose, L -glutamine, and sodium pyruvate supplemented with 10% fetal bovine serum (FBS), 1% non -essential amino acids, and 0.1% gentamicin sulfate, and 25mM HEPES. The vehicle (50% DMSO) was also prepared via the sa me dilution series to serve as a control. Growth media was removed from the cells and replaced with the same volume of each compound dilution. Cells were incubated for 24 h , after which CellTiter 96® AQueous One Solution Reagent was added to each well as recommended by the manufacturer’s protocol (Promega CellTiter 96 AQueous One Solution Cell Proliferation Assay) and further incubated for 4 h. After incubation, absorbance was measured at 490 nm on an Infinite M plex multimode microplate reader with i -control Tecan software. Viability was calculated by subtracting media only absorbance values and normalizing to the vehicle control at each concentration. The presented data is one assay performed in triplicate that is representative of multiple trials. Data for the 256 and 512 μg/mL concentrations were removed from analysis due to vehicle toxicity […]
(§5) CC50 concentrations were determined via the ED50 Plus v1.0 software (https://archive.org/details/ed50v10_zip).
Figure S41. The effect of compounds on cell viability. The lines represent non -linear regression curves, and error bars represent means ± […]
SD (n=3). […]

S. aureus 8810 = assay: Broth microdilution antibacterial assay; type: cell-based, Staphylococcus aureus; settings: for Selectivity index (CC50/IC50): MRC-5 CC50 / S. aureus IC50; for IC50 / MIC: Staphylococcus aureus, 8810; for IC50: average of two biological replicates ± S.D., read-out: IC50
Experimental: (§6) Antibacterial Assay Procedure
(§7) Broth Microdilution Assays
(§8) Media and solutions were autoclaved or sterile filtered prior to use and manipulations were carried out in a laminar flow hood. Antibacterial testing was performed in polypropylene 96 -well flat bottom plates. The minimal inhibitory concentration of blasticidin S ( 1) hydrochloride, P10 (2), and derivatives 15–22 were assessed against Staphylococcus aureus ΔNorA, S. aureus 8810, methicillin-resistant S. aureus (MRSA) ATCC 43300, Enterococcus faecalis ATCC 29212, vancomycin-resistant Enterococcus, Klebsiella pneumoniae ATCC 29665, Pseudomonas aeruginosa, and Acinetobacter baumannii ATCC 17978 using serial dilutions. Doxycycline (Gold Bio) as a positive control and the vehicle as a negative control. Stock solutions of each compound were prepared at 5.12 mg/mL in 50% DMSO/water and serially diluted in 50% DMSO/water to create master plates. From the master plates, 10 μL of each dilution was applied to test plates using a Bravo automated liquid transfer system (Agilent). Bacteria previously grown overnight (37 °C, 120 – 200 RPM), in LB broth were diluted to an OD600 of 0.0 5 in cation-adjusted Mueller-Hinton broth, grown to an OD600 of ~0.5, and diluted to an OD600 of 0.004 in cation-adjusted Mueller-Hinton broth. These diluted cultures were applied to the test plates (190 μL per test well) resulting in final concentrations of the test compounds of 256–2 μg/mL. Growth controls (wells with inoculated media but no vehicle or test compounds) were included to assess any potential toxicity from the vehicle. The plates were incubated at 37 °C for 16–18 h, except for VRE and E. faecalis, which were incubated at 37 °C for 24 h. Inhibition was determined by measuring the optical density at 600 nm (OD600) with a Cytation 3 plate reader (BioTek). The optical density measurements were normalized to the positive and negative controls and the vehicle and growth controls were compared and found to be indistinguishable, indicating no toxicity from the vehicle used. The MIC was the lowest concentration that inhibited >90% of growth. Two biological replicates were performed in duplicate. MIC values are reported […]
as §1, §2, §3, §4, §5

[1] = tested on: methicillin-resistant S. aureus (MRSA) ATCC 43300; assay: Broth microdilution antibacterial assay; type: cell-based, Staphylococcus aureus; settings: for Selectivity index (CC50/IC50): MRC-5 CC50 / MRSA IC50; for IC50 / MIC: Staphylococcus aureus; for IC50: average of two biological replicates ± S.D., read-out: IC50
Experimental: as §6, §7, §8, §1, §2, §3, §4, §5

[2] = tested on: Klebsiella pneumoniae ATCC 29665; assay: Broth microdilution antibacterial assay; type: cell-based; settings: for IC50 / MIC: Klebsiella pneumoniae, ATCC29665, K. pneumoniae; for IC50: average of two biological replicates ± S.D., read-out: IC50; for MIC: lowest concentration inhibiting >90% of growth, range from biological replicates, read-out: MIC; for Selectivity index (CC50/IC50): MRC-5 CC50 / K. pneumoniae IC50
Experimental: as §6, §7, §8, §1, §2, §3, §4, §5

Pseudomonas aeruginosa = assay: Broth microdilution antibacterial assay; type: cell-based; settings: for Selectivity index (CC50/IC50): MRC-5 CC50 / P. aeruginosa IC50; for IC50 / MIC: Pseudomonas aeruginosa; for IC50: average of two biological replicates ± S.D., read-out: IC50
Experimental: as §6, §7, §8, §1, §2, §3, §4, §5

[3] = tested on: vancomycin-resistant Enterococcus (VRE); assay: Broth microdilution antibacterial assay; type: cell-based; settings: for MIC / IC50: Enterococcus, VRE; for IC50: average of two biological replicates ± S.D., read-out: IC50; for Selectivity index (CC50/IC50): MRC-5 CC50 / VRE IC50
Experimental: as §6, §7, §8, §1, §2, §3, §4, §5

[4] = tested on: Acinetobacter baumannii ATCC 17978; assay: Broth microdilution antibacterial assay; type: cell-based; settings: for IC50 / MIC: Acinetobacter baumannii, ATCC17978; for IC50: average of two biological replicates ± S.D., read-out: IC50; for Selectivity index (CC50/IC50): MRC-5 CC50 / A. baumannii IC50
Experimental: as §6, §7, §8, §1, §2, §3, §4, §5

[5] = tested on: Enterococcus faecalis ATCC 29212; assay: Broth microdilution antibacterial assay; type: cell-based; settings: for MIC / IC50: Enterococcus faecalis, ATCC29212; for IC50: average of two biological replicates ± S.D. (18: one biological replicate), read-out: IC50; for Selectivity index (CC50/IC50): MRC-5 CC50 / E. faecalis IC50
Experimental: as §6, §7, §8, §1, §2, §3, §4, §5

[6] = tested on: Staphylococcus aureus ΔNorA; assay: Broth microdilution antibacterial assay; type: cell-based; settings: for Selectivity index (CC50/IC50): MRC-5 CC50 / S. aureus ΔNorA IC50; for IC50 / MIC: Staphylococcus aureus
Experimental: as §6, §7, §8, §1, §2, §3, §4, §5

[7] = S. aureus, lowest concentration inhibiting >90% of growth, range from biological replicates, read-out: MIC
[8] = average MIC, Table S3, read-out: Average Activity against S. aureus
[9] = MRSA, lowest concentration inhibiting >90% of growth, range from biological replicates, read-out: MIC
[10] = average MIC, Table S3, read-out: Average Activity against MRSA
[11] = average MIC, Table S3, read-out: Average Activity against VRE
[12] = 24 h, lowest concentration inhibiting >90% of growth, range from biological replicates, read-out: MIC
[13] = E. faecalis, 24 h, lowest concentration inhibiting >90% of growth, range from biological replicates, read-out: MIC
[14] = average MIC, Table S3, read-out: Average Activity against E. faecalis

Row | SMILES | CC50 at 24 h (in vitro) [µg/mL] | Selectivity index (CC50/IC50) (S. aureus 8810) | IC50 (S. aureus 8810; S. aureus) [µg/mL] | MIC (S. aureus 8810; [7]) [µg/mL] | MIC (S. aureus 8810; [8]) [µg/mL] | Selectivity index (CC50/IC50) [1] | IC50 ([1]; MRSA) [µg/mL] | MIC [1, 9] [µg/mL] | MIC [1, 10] [µg/mL] | IC50 [2] [µg/mL] | MIC [2] [µg/mL] | Selectivity index (CC50/IC50) [2] | Selectivity index (CC50/IC50) (Pseudomonas aeruginosa) | IC50 (Pseudomonas aeruginosa; P. aeruginosa) [µg/mL] | MIC [3, 11] [µg/mL] | MIC [3, 12] [µg/mL] | IC50 [3] [µg/mL] | Selectivity index (CC50/IC50) [3] | IC50 ([4]; A. baumannii) [µg/mL] | Selectivity index (CC50/IC50) [4] | other results
1 | C#CCCNC(=O)[C@H]1O[C@@H](n2ccc(N)nc2=O)C=C[C@@H]1NC(=O)C[C@@H](N)CCN(C)C(=N)N [Compound 20] | 65.9 (≈ 139 µM) | 26 | 2.5 ± 0.2 (≈ 5.28 µM) | 16 (≈ 33.8 µM) | 16 (≈ 33.8 µM) | 9.1 | 7.2 ± 2.3 (≈ 15.2 µM) | 32 (≈ 67.6 µM) | 32 (≈ 67.6 µM) | 30.7 ± 5.3 (≈ 64.8 µM) | 128 (≈ 270 µM) | 2.2 | 3.3 | 20.2 ± 1.3 (≈ 42.7 µM) | 64 (≈ 135 µM) | 64 (≈ 135 µM) | 22.1 ± 12 (≈ 46.7 µM) | 3.0 | 24.3 ± 3.2 (≈ 51.3 µM) | 2.7 | MIC (Pseudomonas aeruginosa; P. aeruginosa, lowest concentration inhibiting >90% of growth, range from biological replicates, read-out: MIC): 64 µg/mL (≈ 135 µM); MIC ([4]; A. baumannii, lowest concentration inhibiting >90% of growth, range from biological replicates, read-out: MIC): 128 µg/mL (≈ 270 µM); MIC [5, 13]: 16 to 32 µg/mL (≈ 33.8 to 67.6 µM); IC50 ([5]; E. faecalis): 11.1 ± 4.1 µg/mL (≈ 23.4 µM); MIC [5, 14]: 16 µg/mL (≈ 33.8 µM); Selectivity index (CC50/IC50) [5]: 5.9; Selectivity index (CC50/IC50) [6]: 4.3; IC50 [6]: 15.2 ± 2.1 µg/mL (≈ 32.1 µM); MIC [6]: 64 µg/mL (≈ 135 µM)
2 | CCNC(=O)[C@H]1O[C@@H](n2ccc(N)nc2=O)C=C[C@@H]1NC(=O)C[C@@H](N)CCN(C)C(=N)N [Compound 16] | 137 (≈ 305 µM) | 26 | 5.3 ± 1.5 (≈ 11.8 µM) | 32 (≈ 71.2 µM) | 32 (≈ 71.2 µM) | 9.2 | 14.9 ± 1.6 (≈ 33.1 µM) | 32 (≈ 71.2 µM) | 32 (≈ 71.2 µM) | 60.1 ± 6.2 (≈ 134 µM) | 256 (≈ 570 µM) | 2.3 | 6.3 | 21.8 ± 2.7 (≈ 48.5 µM) | 64 (≈ 142 µM) | 64 (≈ 142 µM) | 20.2 ± 8.1 (≈ 44.9 µM) | 6.8 | 35.7 ± 11 (≈ 79.4 µM) | 3.8 | MIC (Pseudomonas aeruginosa): 64 to 128 µg/mL (≈ 142 to 285 µM); MIC [4]: 128 µg/mL (≈ 285 µM); MIC [5, 13]: 16 to 32 µg/mL (≈ 35.6 to 71.2 µM); IC50 ([5]; E. faecalis): 9.6 ± 4 µg/mL (≈ 21.4 µM); MIC [5, 14]: 16 µg/mL (≈ 35.6 µM); Selectivity index (CC50/IC50) [5]: 14; Selectivity index (CC50/IC50) [6]: 7.0; IC50 [6]: 19.6 ± 1.8 µg/mL (≈ 43.6 µM); MIC [6]: 128 µg/mL (≈ 285 µM)

— article PMC10945559, “Forgotten Natural Products: Semisynthetic Development of Blasticidin S As an Antibiotic Lead” (ACS Medicinal Chemistry Letters, 2024)
